Experimental data taken from patent publication US8999957B2, “Heterocyclic compounds as ERK inhibitors” (Merck Sharp & Dohme Corp., priority 2010, dated 2015).

Target: fully phosphorylated, active Mouse ERK2 protein (Mus musculus (Mouse), UniProt P63085)
Test: Active ERK2 (aERK) IMAP assay, condition 1
Type: biochemical
Details: aERK assay condition 1, 30 μM ATP
Description: Active ERK2 (aERK) Assay: (Unless Indicated Otherwise, the Data Provided for aERK was obtained using Condition 1)
Activated ERK2 activity was also determined in the IMAP assay format using the procedure outlined above. […] Reactions proceeded for 30 minutes before termination by addition of 60 μl IMAP detection beads in binding buffer. Plates were read as above after 30 minute binding equilibration.

fully phosphorylated, active Mouse ERK2 protein, sequence (P63085 whole entry): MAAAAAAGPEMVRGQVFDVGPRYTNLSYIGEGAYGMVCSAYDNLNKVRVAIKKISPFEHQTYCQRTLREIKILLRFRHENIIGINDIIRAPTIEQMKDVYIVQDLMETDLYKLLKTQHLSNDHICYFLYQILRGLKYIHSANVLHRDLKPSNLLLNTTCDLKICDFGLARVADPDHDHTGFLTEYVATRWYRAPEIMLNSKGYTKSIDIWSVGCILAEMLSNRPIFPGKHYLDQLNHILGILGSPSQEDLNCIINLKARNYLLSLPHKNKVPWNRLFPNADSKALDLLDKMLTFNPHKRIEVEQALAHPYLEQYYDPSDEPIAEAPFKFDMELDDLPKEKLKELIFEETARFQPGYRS

Row | SMILES | IC50
1 | O=C(N[C@@H]1CCCN(Cc2ccccc2C(F)(F)F)C1)c1ccc2[nH]nc(-c3ccc4c(c3)CCO4)c2c1 | 1000 nM
2 | O=C(N[C@@H]1CCCN(Cc2c(F)cccc2F)C1)c1ccc2[nH]nc(-c3ccc4c(c3)CCO4)c2c1 | 173 nM
3 | O=C(N[C@@H]1CNCC[C@H]1c1ccccc1)c1ccc2[nH]nc(-c3ccc4c(c3)CCO4)c2c1 | 23 nM
4 | CN1CC[C@@H](c2ccccc2)[C@H](NC(=O)c2ccc3[nH]nc(-c4ccc5c(c4)CCO5)c3c2)C1 | 118 nM
5 | O=C(N[C@@H]1CNCC[C@H]1c1ccccc1)c1ccc2[nH]nc(-c3ccc4c(c3)OCO4)c2c1 | 27.1 nM
6 | O=C(N[C@@H]1CNCC[C@H]1c1ccccc1)c1ccc2[nH]nc(-c3ccc4[nH]c(=O)[nH]c4c3)c2c1 | 50.1 nM
7 | CC(C)Oc1ccc(-c2n[nH]c3ccc(C(=O)N[C@@H]4CNCC[C@H]4c4ccccc4)cc23)cc1 | 49.9 nM
8 | CC(C)Oc1ccc(-c2n[nH]c3ccc(C(=O)N[C@@H]4CN(C)CC[C@H]4c4ccccc4)cc23)cc1 | 300 nM
9 | [2H]C([2H])([2H])N1CC[C@@H](c2ccccc2)[C@H](NC(=O)c2ccc3[nH]nc(-c4ccc(OC(C)C)cc4)c3c2)C1 | 300 nM
10 | CC(C)Oc1cc(-c2n[nH]c3ccc(C(=O)N[C@@H]4CNCC[C@H]4c4ccccc4)cc23)ccn1 | 141 nM
11 | O=C(N[C@@H]1CCCN(c2ccccc2F)C1)c1ccc2[nH]nc(-c3ccncc3)c2c1 | 62.3 nM
12 | COc1cccc(F)c1CN1CCCCC(NC(=O)c2ccc3[nH]nc(-c4ccncc4)c3c2)C1 (centres unmarked) | 231 nM
13 | O=C(NC1CCCCN(Cc2ccccc2F)C1)c1ccc2[nH]nc(-c3ccncc3)c2c1 (centres unmarked) | 79.2 nM
14 | O=C(NC1CCCCN(Cc2ccccn2)C1)c1ccc2[nH]nc(-c3ccncc3)c2c1 (centres unmarked) | 369 nM
15 | O=C(N[C@@H]1CCCN(Cc2c(F)cccc2F)C1)c1ccc2[nH]nc(-c3ccnc(Cl)c3)c2c1 | 62.3 nM
16 | COc1cccc(F)c1CN1CC(NC(=O)c2ccc3[nH]nc(-c4ccncc4)c3c2)CC(F)(F)C1 (centres unmarked) | 17.4 nM
17 | O=C(NC1CN(Cc2c(F)cccc2F)CC(F)(F)C1)c1ccc2[nH]nc(-c3ccncc3)c2c1 (centres unmarked) | 241 nM
18 | O=C(N[C@@H]1CCCNC1)c1ccc2[nH]nc(-c3ccncc3)c2c1 | 835 nM
19 | O=C(NC1CCCCN(CCCc2ccccc2)C1)c1ccc2[nH]nc(-c3ccncc3)c2c1 (centres unmarked) | 72.5 nM
20 | COc1cccc(F)c1CN1C[C@H](NC(=O)c2ccc3[nH]nc(-c4ccc5nccn5c4)c3c2)C[C@@H](C(F)(F)F)C1 | 181 nM
21 | COc1cccc(F)c1CN1CCC(O[Si](C)(C)C(C)(C)C)C(NC(=O)c2ccc3[nH]nc(-c4ccc5nccn5c4)c3c2)C1 (centres unmarked) | 318 nM
22 | COc1cccc(F)c1CN1CCC(O)C(NC(=O)c2ccc3[nH]nc(-c4ccc5nccn5c4)c3c2)C1 (centres unmarked) | 42.1 nM
23 | COC(=O)[C@@H]1CC[C@@H](NC(=O)c2ccc3[nH]nc(-c4ccncc4)c3c2)CN1Cc1ccccc1 | 40.7 nM

Row | SMILES | IC50
24 | COc1cccc(F)c1CN1CCC[C@@H](NC(=O)c2ccc3[nH]nc(-c4ccc5nncn5c4)c3c2)C1 | 6.46 nM
25 | COc1cccc(F)c1CN1CC(NC(=O)c2ccc3[nH]nc(-c4ccnc(C)c4)c3c2)CCC1C (centres unmarked) | 26.8 nM
26 | COc1ccccc1CCN1CCCCC(NC(=O)c2ccc3[nH]nc(-c4ccncc4)c3c2)C1 (centres unmarked) | 31.1 nM
27 | CC(C)C(NC(=O)[C@@H]1CC[C@@H](NC(=O)c2ccc3[nH]nc(-c4ccncc4)c3c2)CN1Cc1ccccc1)C(C)C | 262 nM
28 | COc1cccc(F)c1CN1C[C@@H](C)C[C@@H](NC(=O)c2ccc3[nH]nc(-c4ccc5nc(C)sc5c4)c3c2)C1 | 3.67 nM
29 | COc1cccc(F)c1CN1C[C@H](NC(=O)c2ccc3[nH]nc(-c4ccc5nccn5c4)c3c2)CC(F)(F)C1 | 23.9 nM
30 | O=C(N[C@H]1CN(Cc2c(F)cccc2F)CC(F)(F)C1)c1ccc2[nH]nc(-c3ccc4nccn4c3)c2c1 | 234 nM
31 | O=C(NC12CC1CCN(Cc1c(F)cccc1F)C2)c1ccc2[nH]nc(-c3ccc4nccn4c3)c2c1 (centres unmarked) | 136 nM
32 | CN1C[C@H](NC(=O)c2ccc3[nH]nc(-c4ccncc4)c3c2)CC[C@H]1C(=O)NCc1ccccc1 | 350 nM
33 | Cc1cccc(C)c1CN1CC(NC(=O)c2ccc3[nH]nc(-c4ccncc4)c3c2)CC(F)(F)C1 (centres unmarked) | 457 nM
34 | Cn1cc2cc(-c3n[nH]c4ccc(C(=O)N[C@@H]5C[C@H](C(F)(F)F)CN(Cc6c(F)cccc6F)C5)cc34)ccc2n1 | 39.8 nM
35 | COc1cccc(F)c1CN1C[C@H](NC(=O)c2ccc3[nH]nc(-c4ccncc4)c3c2)CCC1CO (some centres unmarked) | 3.58 nM
36 | O=C(N[C@@H]1CCCN(Cc2c(F)cccc2F)C1)c1ccc2[nH]nc(-c3ccncc3)c2c1 | 36.2 nM
37 | COC[C@H]1CC[C@@H](NC(=O)c2ccc3[nH]nc(-c4ccncc4)c3c2)CN1Cc1c(F)cccc1OC | 456 nM
38 | COc1cccc(F)c1CN1CCC[C@@H](NC(=O)c2ccc3[nH]nc(-c4ccncc4)c3c2)C1 | 13.9 nM
39 | COc1cccc(F)c1CN1C[C@@H](C)C[C@@H](NC(=O)c2ccc3[nH]nc(-c4ccn5ncnc5c4)c3c2)C1 | 15.1 nM
40 | COc1cccc(F)c1CN1C[C@@H](C)C[C@@H](NC(=O)c2ccc3[nH]nc(-c4nc5ccccc5s4)c3c2)C1 | 61.3 nM
41 | COCCOc1cccc(F)c1CN1CCC[C@@H](NC(=O)c2ccc3[nH]nc(-c4ccncc4)c3c2)C1 | 16.9 nM
42 | CCOC(=O)C1CCN(Cc2ccccc2)CC1NC(=O)c1ccc2[nH]nc(-c3ccncc3)c2c1 (centres unmarked) | 191 nM
43 | O=C(NC1COCCN(CCc2c(F)cccc2F)C1)c1ccc2[nH]nc(-c3ccncc3)c2c1 (centres unmarked) | 20.8 nM
44 | O=C(NC1COCCN(CCc2cccc(F)c2)C1)c1ccc2[nH]nc(-c3ccncc3)c2c1 (centres unmarked) | 61.6 nM
45 | Cc1cc(-c2n[nH]c3ccc(C(=O)NC4CC[C@H]5CC[C@@H]4N5Cc4ccccc4F)cc23)ccn1 (some centres unmarked) | 9.1 nM
46 | COc1cccc(F)c1CN1C2CCC(NC(=O)c3ccc4[nH]nc(-c5ccnc(C)c5)c4c3)C1CC2 (centres unmarked) | 20.4 nM

Further molecules by falling IC50, results first:

Row | IC50 | SMILES
47 | 999 nM | N#Cc1cccc(CN2CCC[C@@H](NC(=O)c3ccc4[nH]nc(-c5ccc6c(c5)CCO6)c4c3)C2)c1
48 | 650 nM | CCN1CC[C@@H](c2ccccc2)[C@H](NC(=O)c2ccc3[nH]nc(-c4ccc(OC(C)C)cc4)c3c2)C1
49 | 375 nM | Cn1cc2cc(-c3n[nH]c4ccc(C(=O)N[C@H]5C[C@@H](C(F)(F)F)CN(Cc6c(F)cccc6F)C5)cc34)ccc2n1
50 | 371 nM | O=C(N[C@@H]1CC[C@H](C(=O)NCc2ccccc2)NC1)c1ccc2[nH]nc(-c3ccncc3)c2c1
51 | 300 nM | CC(C)Oc1ccc(-c2n[nH]c3ccc(C(=O)N[C@@H]4CN(C)CC[C@H]4c4ccccc4)cc23)cn1
52 | 300 nM | CCN1CC[C@@H](c2ccccc2)[C@H](NC(=O)c2ccc3[nH]nc(-c4ccc(OC(C)C)nc4)c3c2)C1
53 | 300 nM | CC(C)(C)OC(=O)N1CC[C@@H](c2ccccc2)[C@H](NC(=O)c2ccc3[nH]nc(-c4ccc5c(c4)CCO5)c3c2)C1
54 | 249 nM | O=C(NC1CCCCN(Cc2ccccc2)C1)c1ccc2[nH]nc(-c3ccncc3)c2c1 (centres unmarked)
55 | 231 nM | Cn1cnnc1CN1CCC[C@@H](NC(=O)c2ccc3[nH]nc(-c4ccncc4)c3c2)C1
56 | 200 nM | O=C(NC12CC1CCN(Cc1ccccc1)C2)c1ccc2[nH]nc(-c3ccc4nccn4c3)c2c1 (centres unmarked)
57 | 181 nM | Cc1cc(-c2n[nH]c3ccc(C(=O)N[C@@H]4CCCN(CC(O)c5ccccc5F)C4)cc23)ccn1 (some centres unmarked)
58 | 167 nM | COc1ccccc1CN1CC(NC(=O)c2ccc3[nH]nc(-c4ccncc4)c3c2)CC(F)(F)C1 (centres unmarked)
59 | 148 nM | O=C(NC1CCCCN(Cc2c(F)cccc2F)C1)c1ccc2[nH]nc(-c3ccncc3)c2c1 (centres unmarked)
60 | 144 nM | COC(=O)[C@@H]1CC[C@@H](NC(=O)c2ccc3[nH]nc(-c4ccncc4)c3c2)CN1
61 | 128 nM | COc1cccc(F)c1CN1C[C@@H](C)C[C@@H](NC(=O)c2ccc3[nH]nc(-c4ccc5nonc5c4)c3c2)C1
62 | 120 nM | O=C(N[C@@H]1CC[C@@H](C(=O)NCc2ccccc2)NC1)c1ccc2[nH]nc(-c3ccncc3)c2c1
63 | 105 nM | O=C(NC1CN(C(=O)OCc2ccccc2)CC(F)(F)C1)c1ccc2[nH]nc(-c3ccncc3)c2c1 (centres unmarked)

Row | IC50 | SMILES
64 | 86 nM | COc1cccc(F)c1CN1CCC2CC2(NC(=O)c2ccc3[nH]nc(-c4ccc5nccn5c4)c3c2)C1 (centres unmarked)
65 | 85.4 nM | O=C(NC1CCCCN(CC2CCc3ccccc32)C1)c1ccc2[nH]nc(-c3ccncc3)c2c1 (centres unmarked)
66 | 84.9 nM | CC(C)Oc1ccc(-c2n[nH]c3ccc(C(=O)N[C@@H]4CNCC[C@H]4c4ccccc4)cc23)cn1
67 | 73.6 nM | COc1cccc(F)c1CN1C[C@H](C)C[C@H](NC(=O)c2ccc3[nH]nc(-c4ccc5nsnc5c4)c3c2)C1
68 | 69.2 nM | COc1cccc(F)c1CN1C[C@H](NC(=O)c2ccc3[nH]nc(-c4ccc5nccn5c4)c3c2)CCC1=O
69 | 68.9 nM | COc1cccc(F)c1CN1CCC[C@@H](NC(=O)c2ccc3[nH]nc(-c4ccn5ncnc5c4)c3c2)C1
70 | 51.3 nM | CN(C)C(=O)[C@@H]1CC[C@@H](NC(=O)c2ccc3[nH]nc(-c4ccncc4)c3c2)CN1Cc1ccccc1
71 | 43.3 nM | O=C(NC1CCCCN(CCc2c(F)cccc2F)C1)c1ccc2[nH]nc(-c3ccncc3)c2c1 (centres unmarked)
72 | 40.5 nM | COC(=O)[C@@H]1CC[C@@H](NC(=O)c2ccc3[nH]nc(-c4ccncc4)c3c2)CN1Cc1c(F)cccc1OC
73 | 22.9 nM | O=C(N[C@@H]1CCCN(Cc2ccc3occc3c2)C1)c1ccc2[nH]nc(-c3ccc4c(c3)CCO4)c2c1
74 | 22.2 nM | COc1cccc(F)c1CN1CCC[C@@H](NC(=O)c2ccc3[nH]nc(-c4ccc5nc(C)nn5c4)c3c2)C1
75 | 16.3 nM | COc1cccc(F)c1CN1CCC(F)C(NC(=O)c2ccc3[nH]nc(-c4ccc5nccn5c4)c3c2)C1 (centres unmarked)
76 | 15.2 nM | COc1cccc(F)c1CN1C[C@H](C)C[C@H](NC(=O)c2ccc3[nH]nc(-c4ccc5ncsc5c4)c3c2)C1
77 | 13.7 nM | O=C(N[C@@H]1CNCC[C@H]1c1ccccc1)c1ccc2[nH]nc(-c3ccc4[nH]ncc4c3)c2c1
78 | 9.84 nM | O=C(NC1COCCN(CCc2ccccc2F)C1)c1ccc2[nH]nc(-c3ccncc3)c2c1 (centres unmarked)
79 | 8.72 nM | O=C(NC1CCCCN(CCc2ccccc2)C1)c1ccc2[nH]nc(-c3ccncc3)c2c1 (centres unmarked)
80 | 5 nM | O=C(NC1CCCCN(CCc2ccccc2F)C1)c1ccc2[nH]nc(-c3ccncc3)c2c1 (centres unmarked)
